The results in this text go back to publication PMC9508196 (Scientific Reports, 2022).

Values after ≈ are worked out from the molar mass of the structure shown. No end group written: not given here.

Test [1] has as its system A. baumannii isolate D-10.1-2. The test can be described thus: Disk diffusion test (CLSI), antibiotic susceptibility profile. Type of test: cell-based, Acinetobacter baumannii. The following applies: CLSI breakpoints. As for the experimental part:
(§1) ^aAntibiotic susceptibility profile of all isolated strains was evaluated by disk diffusion test, using the standard protocol guide of the Clinical and Laboratory Standards Institute (CLSI), and interpreted as S: Susceptible to standard dosing regimen; I: Intermediate; R: Resistant (in accordance with the criteria of CLST breakpoints).
(In general: In agar diffusion tests the substance spreads into inoculated agar from a disc or well.)

The subject of test [2] is A. baumannii isolate D-10.1-1. Described as above. In kind it is cell-based, Acinetobacter baumannii. Particulars: CLSI breakpoints. The protocol: as §1
Test [3] deals with A. baumannii isolate C-8.2-1. The test is described as above. In kind it is cell-based, Acinetobacter baumannii. The following applies: CLSI breakpoints. As for the experimental part: as §1
The subject of test [4] is A. baumannii isolate B-8.1-2. The description is as above. In kind it is cell-based, Acinetobacter baumannii. The following applies: CLSI breakpoints. The protocol: as §1
Test [5] relates to A. baumannii isolate A-8.2-1. Described as above. Type of test: cell-based, Acinetobacter baumannii. The following applies: CLSI breakpoints. The protocol:
as §1

The subject of test [6] is A. baumannii isolate B-8.1-1. The description is as above. The following applies: CLSI breakpoints. Type of test: cell-based, Acinetobacter baumannii. The protocol:
as §1

Test [7] relates to A. baumannii isolate B-8.2-2. The test is described as above. Type of test: cell-based, Acinetobacter baumannii. The following applies: CLSI breakpoints. As for the experimental part: as §1
In test [8] the test system is A. baumannii isolate C-8.1-2. The description is as above. In kind it is cell-based, Acinetobacter baumannii. The following applies: CLSI breakpoints. The protocol: as §1
Test [9] deals with A. baumannii C-8.1–2 (MDR). The test can be described thus: microbe, parasite or virus in culture. Particulars: Acinetobacter baumannii. In kind it is cell-based, Acinetobacter baumannii. From the text:
(§2) Ten strains of both Gram-positive and -negative bacteria, including Staphylococcus aureus ATCC 25,923, S. epidermidis ATCC 12,228, Bacillus cereus ATCC 11,778, Listeria monocytogenes 10403S, Salmonella typhimurium ATCC 13,311, Pseudomonas aeruginosa ATCC 27,853, Shigella sonnei ATCC 11,060, A. baumannii ATCC 19,606, Escherichia coli ATCC 25,922 and E. coli O157:H7, were used in this study. Eight clinical isolates of multidrug-resistant (MDR) and extensively drug-resistant (XDR) A. baumannii, isolated from human (blood, sputum, respiratory sample, sterile site sample and urine), were kindly provided by Asst. Prof. Dr. Sakawrat Kanthawong (Faculty of Medicine, Khon Kaen University, Thailand) (Table S1). All bacterial strains, excluding L. monocytogenes 10403S and E. coli, were cultured in tryptic soy broth (TSB). L. monocytogenes was grown in TSB supplemented with 0.6% yeast extract (TSB-YE), and E. coli was cultured in Luria broth (LB). All of bacteria were cultured at 37 °C with continuous shaking at 220 rpm.
(§3) Minimum inhibitory concentration (MIC) of peptides and antibiotics was assessed by a modified version of the broth microdilution method from the Clinical and Laboratory Standards Institute (CLSI) as previously described. In brief, mid-log phase growths of microbial strains were cultured in Müeller-Hinton broth (MHB) with an initial inoculum of 2–8 × 10^5 CFU/mL. Bacteria suspensions were incubated in sterile 96-well plates with test agents at desired concentrations. […] Minimum bactericidal concentration (MBC) determination was performed using a modified version of the colony count assay. In brief, fifty µl of all non-turbid wells from MIC experiments were spread on agar plates. The MBC value was defined as the lowest concentration of peptides with no colony growth on the plate. All assays were performed in triplicate.

Test [10] deals with A. baumannii C-8.2–1 (XDR). Kind of test: microbe, parasite or virus in culture. Particulars: Acinetobacter baumannii. In kind it is cell-based, Acinetobacter baumannii.
Excerpt: as §2, §3

Test [11] relates to A. baumannii B-8.1–2 (MDR). Kind of test: microbe, parasite or virus in culture. Type of test: cell-based, Acinetobacter baumannii. The following applies: Acinetobacter baumannii.
Excerpt: as §2, §3

Test [12] concerns A. baumannii B-8.2–2 (XDR). The test can be described thus: microbe, parasite or virus in culture. The following applies: Acinetobacter baumannii. In kind it is cell-based, Acinetobacter baumannii.
Excerpt: as §2, §3

Test [13] concerns A. baumannii A-8.2–1 (XDR). The test can be described thus: microbe, parasite or virus in culture. In kind it is cell-based, Acinetobacter baumannii. The following applies: Acinetobacter baumannii.
Excerpt: as §2, §3

For test [14], the system named is A. baumannii B-8.1–1 (MDR). The test can be described thus: microbe, parasite or virus in culture. Type of test: cell-based, Acinetobacter baumannii. The following applies: Acinetobacter baumannii.
Excerpt: as §2, §3

Test [15] relates to A. baumannii ATCC 19,606. The test can be described thus: microbe, parasite or virus in culture. Type of test: cell-based, Acinetobacter baumannii.
Excerpt: as §2, §3

Test [16] concerns Shigella sonnei ATCC 11,060. Type of test: cell-based. The following applies: S. sonnei ATCC 11,060; broth microdilution, MHB, 24 h, 37 °C, triplicate.
Excerpt: as §2, §3
(Broth dilution looks for growth in wells or tubes with falling amounts of substance.)

Test [17] relates to Salmonella Typhimurium ATCC 13,311. Type of test: cell-based. Particulars: S. Typhimurium ATCC 13,311; broth microdilution, MHB, 24 h, 37 °C, triplicate.
Excerpt: as §2, §3

Test [18] deals with Pseudomonas aeruginosa ATCC 27,853. In kind it is cell-based. The following applies: P. aeruginosa ATCC 27,853; broth microdilution, MHB, 24 h, 37 °C, triplicate.
Excerpt: as §2, §3

Test [19] relates to Staphylococcus aureus ATCC 25,923. In kind it is cell-based. Particulars: S. aureus ATCC 25,923; broth microdilution, MHB, 24 h, 37 °C, triplicate.
Excerpt: as §2, §3

Test [20] has as its system Escherichia coli O157:H7 MT strain. Type of test: cell-based. Particulars: E. coli O157:H7 MT strain; broth microdilution, MHB, 24 h, 37 °C, triplicate.
Excerpt: as §2, §3

In test [21] the test system is Listeria monocytogenes 10403S. In kind it is cell-based. Particulars: L. monocytogenes 10403S; broth microdilution, MHB, 24 h, 37 °C, triplicate.
Excerpt: as §2, §3

Test [22] deals with Staphylococcus epidermidis ATCC 12,228. Type of test: cell-based. Particulars: S. epidermidis ATCC 12,228; broth microdilution, MHB, 24 h, 37 °C, triplicate.
Excerpt: as §2, §3

In test [23] the test system is Bacillus cereus ATCC 11,778. In kind it is cell-based. Particulars: B. cereus ATCC 11,778; broth microdilution, MHB, 24 h, 37 °C, triplicate.
Excerpt: as §2, §3

Test [24] deals with Escherichia coli ATCC 25,922. Type of test: cell-based. The following applies: E. coli ATCC 25,922; broth microdilution, MHB, 24 h, 37 °C, triplicate.
Excerpt: as §2, §3

[25] abbreviates: A. baumannii ATCC 19,606, broth microdilution (modified CLSI), MHB, 2–8 × 10^5 CFU/mL, 24 h, 37 °C, triplicate.

For the compound `CC1(C)S[C@@H]2[C@H](NC(=O)[C@H](N)c3ccccc3)C(=O)N2[C@H]1C(=O)O` [Amp, Ampicillin], the Antibiotic susceptibility profile result in test [1], in [2], in [3], in test [4], in test [5] and in [6] was “R” in each case. In addition, the Antibiotic susceptibility profile result in [7] and in test [8] was “R” each time.
Regarding `CC(C)(O/N=C(\C(=O)N[C@@H]1C(=O)N2C(C(=O)[O-])=C(C[n+]3ccccc3)CS[C@H]12)c1csc(N)n1)C(=O)O` [Caz, Ceftazidime], the Antibiotic susceptibility profile entry in test [1] is listed as “I”; in test [2], “R”; in [3], “R”; in [4] it was “R”; in test [5], “R”; in [6] it was “S”. For the same compound, the values for the Antibiotic susceptibility profile entry in test [7] and in test [8] were “R” and “I”, respectively.
Turning to `CNC(C)C1CCC(N)C(OC2C(N)CC(N)C(OC3OCC(C)(O)C(NC)C3O)C2O)O1` (stereo not drawn) [Gen, Gentamicin], the Antibiotic susceptibility profile result in test [1] is recorded as “I”; in [2], “R”; in test [3], “R”; in test [4], “R”; in test [5] it was “R”; in test [6] it was “I”. In addition, the Antibiotic susceptibility profile entry in [7] and in [8] was “R” each time.
Take `CN(C)c1ccc(O)c2c1C[C@H]1C[C@H]3[C@H](N(C)C)C(O)=C(C(N)=O)C(=O)[C@@]3(O)C(O)=C1C2=O` [Minocycline]: the MBC in test [9] turned out to be 31.2 µg/mL (≈ 68.3 µM); in test [10], 31.2 µg/mL (≈ 68.3 µM); in [11], 15.6 µg/mL (≈ 34.2 µM); in [12], 31.2 µg/mL (≈ 68.3 µM); in test [13], 31.2 µg/mL (≈ 68.3 µM); in [14], 7.81 µg/mL (≈ 17.1 µM). Besides, in test [15] (Acinetobacter baumannii, ATCC19), the MBC is 1.95 µg/mL (≈ 4.26 µM). The MIC was 3.91 µg/mL (≈ 8.55 µM) in [9]; 1.95 µg/mL (≈ 4.26 µM) in [10]; 0.98 µg/mL (≈ 2.14 µM) in test [11]; 3.91 µg/mL (≈ 8.55 µM) in [12]; 0.98 µg/mL (≈ 2.14 µM) in test [13]; at most 0.49 µg/mL in test [14]. Further, in [15] (Acinetobacter baumannii, ATCC19, 24 h), the MIC is at most 0.49 µg/mL.
Take RLFRRVKKVAGK-NH2 [AP12]: the MIC in test [15] (setting [25]) is over 250 µg/mL; in test [16], 250 µg/mL; in test [17], 125 µg/mL; in test [18], over 250 µg/mL; in [19], over 250 µg/mL; in [20], 250 µg/mL. Further, the MIC in [21] is 125 µg/mL; in [22], 250 µg/mL; in test [23] it was over 250 µg/mL; in [24], 125 µg/mL.
On to RLFRRVKKVAGKI-NH2 [AP13], for which the MIC is over 250 µg/mL in test [15] (setting [25]); 125 µg/mL in test [16]; 62.5 µg/mL in test [17]; over 250 µg/mL in test [18]; over 250 µg/mL in test [19]; 250 µg/mL in [20]. Also, the MIC in test [21] was 62.5 µg/mL; in [22], 62.5 µg/mL; in test [23], over 250 µg/mL; in test [24], 125 µg/mL.
For the compound RLFRRVKKVAGKIA-NH2 [AP14], the MIC in [15] (setting [25]) is over 250 µg/mL; in [16] it was 125 µg/mL; in test [17] it was 62.5 µg/mL; in [18], 250 µg/mL; in test [19] it was over 250 µg/mL; in test [20], 250 µg/mL. In addition, the MIC was 62.5 µg/mL in test [21], 31.25 µg/mL in test [22], over 250 µg/mL in [23] and 125 µg/mL in test [24].
Take RLFRRVKKVAGKIAK-NH2 [AP15]: the MIC in test [15] (setting [25]) worked out at 62.5 µg/mL; in [16], 62.5 µg/mL; in test [17] it was 31.25 µg/mL; in test [18], 125 µg/mL; in [19] it was 250 µg/mL; in test [20] it was 62.5 µg/mL. Further, the MIC in test [21] was 31.25 µg/mL; in test [22], 15.63 µg/mL; in test [23] it was over 250 µg/mL; in test [24] it was 31.25 µg/mL.
Turning to RLFRRVKKVAGKIAKR-NH2 [AP16], the MIC in test [15] (setting [25]) amounted to 62.5 µg/mL; in test [16] it was 15.63 µg/mL; in [17], 15.63 µg/mL; in test [18] it was 62.5 µg/mL; in test [19], 125 µg/mL; in [20], 125 µg/mL. The MIC in test [21] was 15.63 µg/mL; in test [22], 7.81 µg/mL; in test [23] it was 250 µg/mL; in test [24], 31.25 µg/mL.
On to RLFRRVKKVAGKIAKRI-NH2 [AP17], for which the MIC in test [15] (setting [25]) was found to be 31.25 µg/mL; in [16], 7.81 µg/mL; in test [17], 7.81 µg/mL; in test [18], 15.63 µg/mL; in [19], 62.5 µg/mL; in test [20], 125 µg/mL. For the same compound, the MIC is 7.81 µg/mL in [21], 7.81 µg/mL in test [22], 62.5 µg/mL in [23] and 15.63 µg/mL in [24].
In the case of RLFRRVKKVAGKIAKRIW-NH2 [AP18], the MIC amounted to 7.81 µg/mL in test [15] (setting [25]); 3.91 µg/mL in test [16]; 3.91 µg/mL in test [17]; 3.91 µg/mL in test [18]; 7.81 µg/mL in test [19]; 15.63 µg/mL in test [20]. For the same compound, the MIC worked out at 3.91 µg/mL in test [21], 3.91 µg/mL in test [22], 7.81 µg/mL in test [23] and 7.81 µg/mL in [24].
